# Source: patent US20090221539A1, “METHOD OF DETECTING AND REDUCING BOAR TAINT USING NUCLEAR RECEPTORS” (UNIVERSITY OF GUELPH, priority 2005, published 2009)
# Where two headings read alike, the source gives them in different places.
# What was measured:
# pgCAR [1] = test: Dual luciferase reporter assay in HepG2 cells transiently transfected with pgCAR; assay type: cell-based, pig; conditions: for reporter gene expression (fold-change relative to DMSO vehicle): pgCAR, CYP2B6 response element firefly luciferase, hormones at 10 μM
# Method: Dual Luciferase Reporter Assay: Pig, human ? mouse ? receptors were tested in a transient transfection assay against a panel of hormones and xenobiotics. Hormones and TCPOBOP were tested at 10 μM with the exception of CITCO at 1 μM. The effects of ligands are expressed as fold-change relative to vehicle (dimethylsulfoxide 1:2000) control for each receptor.
# The dual luciferase reporter assay (Promega) was used as a screening tool to identify ligands (hormone and xenobiotic compounds) that regulate the nuclear receptor CAR. The dual luciferase assay consists of 3 plasmids. A pgCAR or hCAR or mCAR expression plasmid containing the full length wild type isoform is used together with a reporter construct, consisting of the CAR response gene promoter element from CYP2B6 regulating the expression of the firefly luciferase gene. […] The Promega Dual-Luciferase Reporter Assay System (Cat#E11960) was used to determine the hormones and xenobiotics that modulate the CAR responsive genes by measuring the amount light produced by the firefly luciferase gene construct.
# The dual luciferase assay method uses HepG2 cells (that express RXR) plated at 50% confluence onto 96 well cell culture plates. The cells are transiently transfected after 1 day with pgCAR expression plasmid, reporter plasmid (containing the CAR response element) and the internal control plasmid, which are pooled treatments to ensure all samples receive the same amount of plasmids. On day two, control or ligand supplemented media are added to cells (ligands from FIG. 4 at 10 ug/ml in DMSO) for a total of n=15 for each ligand. On day four, the media is removed and cells are washed with PBS to remove detached cells and remaining media. The cell monolayer is then treated with Passive lysis buffer and the cell lysate is then transferred to a test tube for analysis. Luminometer readings are made on a Berthold Detection systems Sirius single tube luminometer with dual injectors. The test tube is loaded into the measurement chamber and the LARII luciferase reagent is injected into the cell lysate and a 10 second firefly luciferase relative light unit (RLU) measurement is recorded. The Stop & Glo reagent is then injected into the same tube and the Renella luciferase RLU is measured. The ratio of reporter to control luminescence is used to normalize transfection efficiencies between plates; the normalized values are then statistically analyzed by t-tests to determine how efficiently CAR activates the firefly luciferase reporter gene in response to ligand treatment.
# SULT2A1 [2] = conditions: boar hepatocytes, ligand 8 or 10 hours, vs DMSO
# From the text: (§5) Boar hepatocytes treated with ligands for 8-10 hrs prior to RNA isolation and real time PCR analysis. B-actin was used as the housekeeping gene and DMSO (no hormone treatment) was used as the calibrator. For CYP2A6, CYP2E1, SULT1A1 and UGT2B the primer inefficiencies should not affect the resultant fold changes in this experiment since all hepatocyte treatments come from a single boar and analysis is compared to the no hormone DMSO control. This analysis should be valid since the calibrator is from the same pool of cells.
# (§6) Primary boar hepatocytes were treated with seven different CAR ligands identified in objective 2 and 5, with DMSO used as the vehicle control. Primary cells were plated on 60 mm dishes and treated with ligand. The treatments were incubated for 8 or 10 hours and the RNA was extracted from cells in each treatment. Real Time PCR primers were designed for seven genes of interest CYP2A6, CYP2E1, 3β-HSD, 3α-HSD, SULT2A1, SULT1A1, UGT2B, CYP2B6 and pgCAR, with B-actin used as the housekeeping gene for ΔΔCT analysis.
# 3β-HSD = conditions: boar hepatocytes, ligand 8 or 10 hours, vs DMSO
# From the text: as §5, §6
# UGT2B = conditions: boar hepatocytes, ligand 8 or 10 hours, vs DMSO
# From the text: as §5, §6
# SULT2A1 [3] = test: SULT2A1 activity in primary porcine Leydig cells after treatment with nuclear receptor ligands ([3H]DHEA to DHEAS conversion); assay type: cell-based, pig; conditions: primary Leydig cells of mature Yorkshire boars, 24 hours; CITCO 1 μM, TCPOBOP 250 nM, phenobarbital 2 mM, phenytoin 50 μM, rifampicin 10 μM, PCN 10 μM, dexamethasone 0.1 μM, lithocolic acid 100 μM; vs control
# Method: FIG. 1: Effect of nuclear receptor ligands on SULT2A1 activity in porcine Leydig cells. Primary porcine Leydig cells were isolated from mature Yorkshire boars and the SULT2A1 activity was determined. Leydig cells were cultured in the presence of; CITCO (1 μM), TCPOBOP (250 nM), Phenobarbital (2 mM), Phenytoin (50 μM), Rifampicin (10 μM), PCN (10 μM), Dexamethasone (0.1 μM), Cholic Acid (100 μM), and Lithocolic Acid (100 μM) for 24 hours. Treatments are grouped according to the nuclear receptor affected: constitutive androstane receptor (CAR), pregnane X receptor (PXR), glucocorticoid receptor (GR) and farnesoid X receptor (FXR). Values are presented as means±SE of 3 independent experiments with significant differences indicated (*P<0.05).
# Mature Yorkshire boars of 175±6 days obtained from the Arkell Swine Research Station at the University of Guelph, Guelph, ON were used for the isolation of Leydig cells. After slaughter, the testes were immediately removed and transported to the laboratory within five minutes. Testicular tissue was sliced into pieces of 1 cm^2×2-3 mm thickness and 100 g of tissue was incubated for 20 minutes in a shaking water bath at 37° C. with 1 mg/ml collagenase (type 1A), 50 μg/ml DNase and 50 μg/ml trypsin inhibitor in 250 ml of TC 199 Media containing 1 g/L bovine serum albumin and 0.1 g/L L-glutamine. Preparations of purified Leydig cells were obtained by layering the collagenase—dispersed testicular cells onto discontinuous Percoll gradients supplemented with HBSS. The preparations were then centrifuged at 1500×g for 15 minutes at 4° C. and the cells present at the 40-60% interface were collected as outlined previously (Raeside & Renaud 1983). Cell viability was determined by trypan blue exclusion. The typical viability of Leydig cells after this procedure was greater than 90%.
# To further understand the molecular mechanisms that control SULT2A1 gene transcription, various nuclear receptor ligands were evaluated for their ability to induce SULT2A1 activity in Leydig cells. Aliquots of re-suspended Leydig cells (1×10^6 cells/ml) in TC 199 Media mixture were plated in 24 well plates. The Leydig cells were then treated with various nuclear receptor ligands as outlined in the figure legends in less than 0.5% DMSO vehicle and incubated at 37° C. in 95% air and 5% CO2 for 24 hours.
# After the 24 h incubation period, the media was aspirated and approximately 10,000 cpm of [^3H] […] The cells were incubated for 4 h and the media was removed and immediately extracted by Sep-Pak C18 solid-phase chromatography, as described above. Sulfotransferase activity was assayed by measuring the conversion of [^3H] […] DHEAS (conjugate) fractions by liquid scintillation counting. […]
# 3MI metabolism = 3MI metabolism assay: production of HMOI and 3MOI in primary pig hepatocytes after inducer treatment; assay type: cell-based; conditions: for 3MI metabolism: CITCO 1.0 μM
# Method: (§1) Each data point represents results obtained from 3 separate experiments run in triplicate.
# (§2) Hepatocytes were prepared by a modification of a collagenase perfusion method described previously (Sinclair et al., 2005). Briefly, one hepatic lobe was immediately catheterized by selecting the largest vessel at the cut end. Blood was then flushed from the liver by perfusion with 25 mL/min of medium containing 10 mM hydroxyethyl piperazine ethane (HEPES), 1 mM EGTA and HBSS (pH 7.4) delivered at 37° C. The lobe was then perfused for 5 minutes with the same medium without EGTA and then with William's E Media (pH 7.4) containing 10 mM HEPES and 0.7 mg/mL collagenase type 1 for 10 to 25 minutes until the hepatocytes appeared to be fully dissociated.
# (§3) All remaining experimental procedures were carried out under sterile conditions. The lobe was gently minced with a scalpel to disassociate cells in attachment medium containing 10 mM HEPES, 10% (v/v) fetal bovine serum, 1% (v/v) penicillin-streptomycin and 50 Units/L insulin in William's E media (pH 7.4), at 4° C. Cells were filtered through gauze and centrifuged at 15×g for 3 minutes. The cell pellet was washed in attachment media and cell viability was determined by trypan blue exclusion. […] Hepatocytes were then plated on Primaria™ 60 mm tissue culture dishes (VWR International Ltd., Mississauga, ON) at a density of 2.25×10^6 cells in 3.0 mL attachment media, and kept in a incubator at 37° C. supplied with 95% air and 5% CO2. After 4 hours to allow for attachment of the cells, the medium was replaced with serum-free medium that contained 10 mM HEPES, 10 mM pyruvate, 0.35 mM proline, 1% (v/v) penicillin-streptomycin and 50 Units/L insulin in William's E media (pH 7.4) with treatments. For inducer experiments, hepatocytes were treated for 19 hours prior to the determination of P450 activities and 3MI metabolism.
# To measure 3MI metabolism in primary cultured hepatocytes, cells were incubated with 500 μM 3MI for 6 hours, after which an equal volume of acetonitrile was added to stop the reaction. The production of metabolites was then determined by HPLC analysis as previously described (Terner et al., in press). Formation of metabolites was determined by interpolation of standard curves made from authentic standards HMOI and 3MOI run in duplicate.
# pgCAR [4] = test: Dual luciferase reporter assay in primary boar hepatocytes transfected with pgCAR; assay type: cell-based, pig; conditions: primary boar hepatocytes with exogenous pgCAR expression plasmid
# Method: FIG. 11. Dose response analysis of CITCO ligand treatment in primary boar hepatocytes. Unlike HepG2 cells, primary hepatocytes have very low basal luciferase expression allowing for the detection of significant fold changes above no hormone control at lower doses.
# FIG. 12. Dose response analysis of Phenytoin ligand treatment in primary boar hepatocytes.
# FIG. 13. Dual luciferase assay of selected ligand in boar hepatocytes. Selected activators and repressors of pgCAR in HepG2 cells were tested in boar hepatocytes. […] Only reporter gene activations and not repressions are detectable in this cell model.
# Transfection experiments using the HepG2 cell line identified compounds that were able to alter pgCAR gene regulation. Experiments performed on primary mouse and human hepatocytes indicate that gene regulation has additional levels of complexity, and CAR is not constitutively active in vivo. This experiment uses a similar methodology as objective 2 except primary boar hepatocytes were used as the cell line. Hepatocytes were transfected with a reporter construct containing the CAR responsive element, an internal control Renilla luciferase construct, and pgCAR or an empty vector as control. Control experiments without pgCAR were conducted to determine if endogenous pgCAR in the hepatocytes could activate the reporter construct. […] The cascade of events leading to gene activation remains unclear.
# CYP2A6 = CYP2A6 activity (coumarin 7-hydroxylase, COH assay) in primary pig hepatocytes after inducer treatment; conditions: for CYP2A6 activity: isoproterenol 500 μM, CITCO 1.0 μM
# Method: as §1, §2, §3
# (§4) To determine the rate of p-nitrophenol (PNP) hydroxylase activity and coumarin 7-hydroxylase (COH) activity, hepatocytes were incubated with 500 μM PNP or 100 μM coumarin according to the procedures previously described (Terner et al, in press). Assays were validated to be linear with time and proportional to number of cells. Production of metabolites was determined in duplicate by interpolation of standard curves made from authentic standards p-nitrocatechol and 7-hydroxycoumarin.
# CYP2E1 = CYP2E1 activity (PNP hydroxylase assay) in primary pig hepatocytes after inducer treatment; conditions: isoproterenol 500 μM, hormones and rifampicin 10 μM, CITCO 1.0 μM
# Method: as §1, §2, §3, §4
# [5] = 3-week old male pig hepatocytes, isoproterenol 500 μM, hormones and rifampicin 10 μM, given as increase, FIG. 2 values as percent of control
# [6] = 3-week old male pig hepatocytes, given as increase, FIG. 2 values as percent of control
# [7] = 3-week old male pig hepatocytes, hormones 10 μM, given as increase, FIG. 2 values as percent of control
# [8] = adult male hepatocytes, hormones and rifampicin 10 μM
# [9] = adult male hepatocytes, isoproterenol 500 μM, estrone 10 μM, given as increase, FIG. 2 values as percent of control
structure (smiles),measurement,setting,value
"C[C@@]12C=CC[C@H]1[C@@H]1CC=C3C[C@@H](O)CC[C@]3(C)[C@H]1CC2 [5,16-androstadien-3β-ol]",reporter gene expression (fold-change relative to DMSO vehicle),pgCAR [1],significant repressions
"C[C@]12CCC(=O)C[C@@H]1CC[C@@H]1[C@@H]2CC[C@]2(C)[C@@H](O)CC[C@@H]12 [5α-DHT, 5α dihydrotestosterone]",SULT2A1 gene expression,SULT2A1 [2],significantly activated
same,3β-HSD gene expression,3β-HSD,significantly activated
same,UGT2B gene expression,UGT2B,significantly activated
C[C@]12CC[C@H](O)C[C@@H]1CC[C@@H]1[C@@H]2CC[C@]2(C)C=CC[C@@H]12 [5α-androsten-3β-ol],reporter gene expression (fold-change relative to DMSO vehicle),pgCAR [1],significant repressions
"Clc1ccc(-c2nc3sccn3c2C=NOCc2ccc(Cl)c(Cl)c2)cc1 [CITCO, 6-(4-chlorophenyl)imidazo[2,1-b][1,3]thiazole-5-carbaldehyde O-(3,4-dichlorobenzyl)oxime]",SULT2A1 activity,SULT2A1 [3],did not affect
same,dose at which CITCO significantly activates the pgCAR receptor,pgCAR [1]; dose response 0.01-10.0,≥ 0.5 µM
same,reporter gene expression (fold-change relative to DMSO vehicle),pgCAR [1],significant activation
same,3MI metabolism,3MI metabolism; 3-week old male hepatocytes,"did not increase CYP2E1 or CYP2A6 activity, or affect 3MI metabolism"
same,3MI metabolism,"3MI metabolism; adult male hepatocytes, rifampicin 10 μM","did not increase CYP2E1 or CYP2A6 activity, or affect 3MI metabolism"
same,activation of the luciferase reporter construct,pgCAR [4],activated the reporter construct
"CC(=O)[C@H]1[C@H](C#N)C[C@H]2[C@@H]3CC=C4C[C@@H](O)CC[C@]4(C)[C@H]3CC[C@@]21C [PCN, Pregnenolone 16α-carbonitrile]",SULT2A1 activity,SULT2A1 [3],only rifampicin resulted in a significant increase
CO[C@H]1/C=C/O[C@@]2(C)Oc3c(C)c(O)c4c(O)c(c(/C=N/N5CCN(C)CC5)c(O)c4c3C2=O)NC(=O)/C(C)=C\C=C\[C@H](C)[C@H](O)[C@@H](C)[C@@H](O)[C@@H](C)[C@H](OC(C)=O)[C@@H]1C [Rifampicin],decrease in CYP2A6 activity,"CYP2A6; male, pig, hepatocytes, 19 h, 10 μM, pH 7.4",43±7%
same,production of 3MOI,3MI metabolism; [5],128±10%
same,production of the 3MI metabolite HMOI,3MI metabolism; [5],151±14%
"Clc1cnc(Oc2ccc(Oc3ncc(Cl)cc3Cl)cc2)c(Cl)c1 [TCBOPOP, 1,4-bis-[2-(3,5-dichloropyridyl-oxy)]benzene; 3,3′5,5′-tetrachloro-1,4-bis(pyridyl-oxy)benzene]",SULT2A1 activity,SULT2A1 [3],did not affect
C[C@@]12CCC[C@H]1[C@@H]1CC[C@H]3C[C@@H](O)CC[C@]3(C)[C@H]1CC2 [androstanol],CYP2E1 activity,CYP2E1; [6],did not alter
same,CYP2E1 activity,CYP2E1; adult male hepatocytes,did not alter
same,CYP2A6 activity,CYP2A6; [7],did not alter
same,CYP2A6 activity,CYP2A6; [8],did not alter
same,production of 3MOI,3MI metabolism; [5],did not affect
same,production of the 3MI metabolite HMOI,3MI metabolism; [5],did not affect
C[C@]12CC[C@@H](O)C[C@@H]1CC[C@@H]1[C@@H]2CC[C@]2(C)C=CC[C@@H]12 [androstenol],production of 3MOI,3MI metabolism; [5],did not affect
same,production of the 3MI metabolite HMOI,3MI metabolism; [5],did not affect
C[C@]12CC[C@@H]3c4ccc(O)cc4CC[C@H]3[C@@H]1CCC2=O [estrone],HMOI production,3MI metabolism; [9],142±12%
CC(C)NCC(O)c1ccc(O)c(O)c1 (stereo not shown) [isoproterenol],production of 3MOI,3MI metabolism; [5],unaffected
same,production of the 3MI metabolite HMOI,3MI metabolism; [5],150±13%
same,3MOI production,"3MI metabolism; adult male hepatocytes, isoproterenol 500 μM, estrone 10 μM",did not alter
same,HMOI production,3MI metabolism; [9],139±12%
O=C1NC(=O)C(c2ccccc2)(c2ccccc2)N1 [phenytoin],SULT2A1 activity,SULT2A1 [3],significant increase
same,activation of the luciferase reporter construct,pgCAR [4],activated the reporter construct
C[C@]12CC[C@H]3[C@@H](CCC4=CC(=O)CC[C@@]43C)[C@@H]1CC[C@@H]2O [testosterone],CYP2E1 activity,CYP2E1; [6],did not alter
same,CYP2E1 activity,CYP2E1; adult male hepatocytes,did not alter
same,CYP2A6 activity,CYP2A6; [7],did not alter
same,CYP2A6 activity,CYP2A6; [8],did not alter
same,production of 3MOI,3MI metabolism,did not affect
same,production of the 3MI metabolite HMOI,3MI metabolism,did not affect
